Like-named read-outs stand apart in the source and are kept apart here.
Experiments:
[1] = tested on: Holstein heifers; assay: Somatic growth after ruminal versus abomasal infusion (Example 3); format: in vivo; conditions: infused in the abomasum compared to equivalent amount in the rumen; at least 2 months
Source text: Heifers are individually weighed on the first day of each experimental period (i.e. day 1) and on the last day of the experimental period (i.e., after at least 2 months, such as after 6 months). […] An increase in body weight indicates an increase in somatic growth while a decrease or no change in body weight indicates a decrease in somatic growth or unchanged somatic growth, respectively.

[2] = tested on: Holstein heifers
Description: The objective of this experiment was to evaluate the effects of ruminal versus abomasal infusion of ammonia (an equivalent source of NPN) on food intake in ruminants.
Feed intake was calculated according to the following formula: Feed intake=[amount of feed provided at the beginning of the day]−[amount of feed left intact (i.e. not eaten) after a period of 24 hours]). Results

[3] = tested on: lactating heifers; assay: Milk production after ruminal versus abomasal infusion (Example 4); format: in vivo, Holstein heifers; conditions: infused in the abomasum compared to equivalent amount in the rumen
Source text: The experimental procedure and animal treatments is the same as described above for example 1, except that the Holstein heifers were lactating heifers.

[4] = tested on: Holstein heifers; assay: Apparent fiber digestibility after ruminal versus abomasal infusion of urea; format: in vivo
Source text: The experiment included a four-week adaptation period to a basal diet (in this case mimicking a winter tropical diet (winter tropical climate being an Aw climate) in addition to the distinct experimental periods (i.e. one experimental period per treatment regimen listed in Table 1), each lasting fourteen days.
Each heifer was rumen-cannulated. A tube was inserted into the abomasum via the rumen cannula to bypass the rumen.
The experiment consisted of two treatment groups subjected to different treatment regimens.
After the adaptation period, the heifers were exposed to the treatment regimens (i.e. consecutively, starting with treatment 1 and followed by treatment 2) as described in Table 1 (2 weeks per treatment regimen).
Heifers were fed low quality hay twice a day (08 h 30 and 16 h 30). The heifers were allowed to eat ad libitum during both feeding events.
An amount of one kilogram of compound feed (referred to as the ‘compound feed trial’), as a meal, was given in the morning (08 h 30) through the cannula (see Table 2). The details over the compositions of hay and compound feed (‘compound feed adaptation’ and ‘compound feed trial’) are presented in Table 3 below. Animals had free access to water troughs throughout the day.
All heifers were simultaneously infused in the rumen and the abomasum. This experimental design allowed each heifer to receive every treatment (consecutively), which provided 4 replicates per treatment. The two experimental periods described in Table 1 lasted 14 days each. For each individual treatment regimen, the fourteen-day period consisted of 8 days of adaptation, 4 days for sampling, and 2 days of rest without any infusions.
Whenever the treatment solution was infused in the rumen, a placebo solution (e.g. saline solution) was infused in the abomasum and whenever the treatment solution was infused in the abomasum, a placebo solution (e.g. water) was infused in the rumen. In the present case, it was necessary to infuse a saline solution in the abomasum (as opposed to water) in order to avoid problems related to osmotic pressure due to the small volume of the abomasum. This situation requires the use of a solution, which has an osmotic pressure similar to that of blood. A physiological saline solution fulfils this requirement. […] Therefore, infusion of water is suitable for the rumen.
Each heifer was equipped with two infusion lines via the cannula bung. Specifically, the first line delivered the solution straight into the rumen; the second line passed through the rumen into the omasum, using a rubber flange as anchor, delivering the pumped solution into the abomasum (Gressley et al. (2006)).
Infusate levels and infusion rates were checked 3 times per day (at 09:00 h;16:00 h and 21:00 h). Whenever necessary, manifold tubes with different inner diameter were replaced to adjust rate or level of solution, aiming to reach 10 L (or 5 L during the first two days of the period) infused continually in 24 h. The infusion rate was set at 3.5 mL/min (5 L/d) for the first two days of adaptation in each experimental period and 6.9 mL/min (10 L/d) for the remaining days.
Samples of compound feed and hay were taken from day 09 to 12 of each experimental period. After samples were collected, a portion was used to determine dried matter content (DM) at 60° C. 72 h and the rest was stored at −20° C. in a large bag labelled with the period number and trial code.

[5] = tested on: Holstein heifers; conditions: 150 g urea equivalent infused into rumen; 0-12 h post-infusion; FIG. 18
Source text: Three non-lactating, non-pregnant Holstein heifers were used for the experiment. The Holstein heifers were on average 48±0.5 months of age and weighed on average 800 kg. Each heifer was rumen-cannulated. The experimental design was a 3×3 Latin Square, involving 3 treatments, 3 periods and 3 animals. Experimental unit is the combination animal×period, totalizing 9 experimental units.
The experiment consisted of 3 treatment regimens (i.e. treatment groups 1, 2, and 3). Specifically, each treatment group differed with respect to the NPN composition they received.
Heifers were housed in a tie-stall barn with individual water and feed troughs, rubber mattresses, and wood shaving bedding. The tie-stall was cleaned and the wood shaving replaced daily. Heifers were fed low quality hay ad libitum. Each experimental period last 4 days in which test products were infused in the rumen (day one) and samples were taken on the following 48 h.
Rumen fluid samples were taken at 0, 0.5, 1, 2, 3, 6, and 12 h post-infusion through a tube adapted to the rumen cannula.

[6] = tested on: Holstein heifers; assay: Nitrogen intake, excretion, digestibility and retention after ruminal infusion of urea sources; format: in vivo
Description: Each heifer was rumen-cannulated.
On the first and second day of experimental period, faeces were collected during 48 h. During this period wood shaves were withdrawn from the mattresses. On day 1, before the ruminal infusion of tested articles, a baseline sample was taken directly from the rectum of each animal. From the moment of ruminal incubation, total faeces were collected for 48 hours. During collection days, faeces were well homogenized, weighted, and a sub-sample (≈200 g) taken on the following hours of the day: 0800 (only for day 2) 1100, 1500 and 1900.

[7] = ammonia infused into abomasum over 24 h (AA)
[8] = ammonia infused into rumen over 24 h (AR)
[9] = urea 127 g/day infused into the abomasum over 24 h (UA)
[10] = urea 127 g/day infused into the rumen once a day (UR)
[11] = during the 48 hours following N infusion into rumen

## N [ammonia]
[1]
  body weight at the end of the treatment: increased body weight
[2]; [7]
  Feed intake, Crude Protein (Feed): 0.581 kg/day
  Feed intake, Crude Protein (Total): 0.952 kg/day
  Feed intake, Hay Dry Matter: 6.09 kg/day
  Feed intake, Neutral detergent fiber: 4.38 kg/day
  Feed intake, Organic Matter: 6.58 kg/day
  Feed intake, Total Dry Matter: 6.97 kg/day
[2]; [8]
  Feed intake, Crude Protein (Feed): 0.537 kg/day
  Feed intake, Crude Protein (Total): 0.907 kg/day
  Feed intake, Hay Dry Matter: 5.37 kg/day
  Feed intake, Neutral detergent fiber: 3.87 kg/day
  Feed intake, Organic Matter: 5.90 kg/day
  Feed intake, Total Dry Matter: 6.26 kg/day
[2]; ammonia into abomasum relative to ammonia in the rumen
  feed intake of hay and total nutrient, in words: increase in feed intake
[3]
  milk production at the end of the treatment: increased milk production

## urea
[1]
  body weight at the end of the treatment: increased body weight
[4]; [9]
  Apparent fiber digestibility, Dry matter: 51.36%
  Apparent fiber digestibility, Neutral detergent fiber: 48.27%
  Apparent fiber digestibility, Organic matter: 52.79%
[4]; [10]
  Apparent fiber digestibility, Dry matter: 49.35%
  Apparent fiber digestibility, Neutral detergent fiber: 43.75%
  Apparent fiber digestibility, Organic matter: 50.18%
[4]; urea in the abomasum compared to urea in the rumen
  apparent fiber digestibility, in words: increased
[5]
  ruminal ammonia concentration over time, in words: higher
[6]; ((N intake − N excreted)/N intake) * 100
  N digestibility: 61.81%
[6]; Faecal N excretion + Urinary N excretion, 48 h
  Total N excretion: 228.22 g
[6]; [11]
  N excretion faeces: 119.92 g
  N excretion urine: 108.30 g
[6]; total N intake in 48 h including N infusion into rumen
  N Intake: 307.58 g
[3]
  milk production at the end of the treatment: increased milk production

From patent publication US11957139B2, “Compositions for improving nitrogen utilization in a ruminant” (Evonik Operations GmbH, priority 2016, dated 2024)
